From ChEMBL document CHEMBL5393450, “Compounds inhibiting tdg activity” (2022) come the findings set out here.

The target in the test is G/T mismatch-specific thymine DNA glycosylase (Homo sapiens) (UniProt Q13569). In words: Inhibition of TDG in human HEK293T at 10 uM by Renilla luciferase based reporter assay relative to control. Type of test: cell-based. On the technique in general: Reporter assays use an easily measured gene product as a stand-in for the process of interest.

A value given as a limit tells only on which side of the number the result lay.

Chain of G/T mismatch-specific thymine DNA glycosylase (Homo sapiens) (Q13569 whole entry): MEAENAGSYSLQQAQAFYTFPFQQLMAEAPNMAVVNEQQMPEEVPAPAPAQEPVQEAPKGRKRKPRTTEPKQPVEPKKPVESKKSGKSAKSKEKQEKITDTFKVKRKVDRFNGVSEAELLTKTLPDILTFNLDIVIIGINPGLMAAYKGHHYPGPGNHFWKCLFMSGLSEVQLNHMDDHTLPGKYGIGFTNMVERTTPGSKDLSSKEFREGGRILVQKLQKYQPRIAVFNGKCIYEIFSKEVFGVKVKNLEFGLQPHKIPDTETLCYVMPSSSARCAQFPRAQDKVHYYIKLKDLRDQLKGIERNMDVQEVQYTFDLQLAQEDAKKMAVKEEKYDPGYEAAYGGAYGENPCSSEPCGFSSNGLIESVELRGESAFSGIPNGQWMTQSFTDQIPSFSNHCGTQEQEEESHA

`Cc1ccc(C2CCN(CCC(=O)c3ccc4c(c3)OCCO4)C2)cc1` (stereo unspecified) displayed an inhibition of less than 25%.

One may read the inhibition as the drop in the measured response relative to a control, in per cent.
